Data as given in patent US20160010068A1, “FUSION POLYNUCLEOTIDES AND FUSION POLYPEPTIDES ASSOCIATED WITH CANCER AND PARTICULARLY MELANOMA AND THEIR USES AS THERAPEUTIC AND DIAGNOSTIC TARGETS” (priority 2013, published 2016).

Legend:
melanoma = conditions: twice daily; phase I trial; cited from earlier work
PWWP2A-ROS1 fusion [1] = molecular target: T1, PWWP2A-ROS1 fusion (Homo sapiens, UniProt P08922); test: Western blot of signaling in melan-a cells expressing the PWWP2A-ROS1 fusion, with crizotinib; format: cell-based; conditions: representative of three independent experiments
T1 construct: exon 1 of PWWP2A is fused with exon 36-43 of ROS1, which contains the tyrosine kinase domain; expressed in transfected cells; host or cells: melan-a cells (immortalized, non-tumorigenic mouse melanocytes), stably transduced with lentivirus (pLenti6.3/TO/V5-Dest)
T1 sequence (P08922 with tags, fused parts or gaps): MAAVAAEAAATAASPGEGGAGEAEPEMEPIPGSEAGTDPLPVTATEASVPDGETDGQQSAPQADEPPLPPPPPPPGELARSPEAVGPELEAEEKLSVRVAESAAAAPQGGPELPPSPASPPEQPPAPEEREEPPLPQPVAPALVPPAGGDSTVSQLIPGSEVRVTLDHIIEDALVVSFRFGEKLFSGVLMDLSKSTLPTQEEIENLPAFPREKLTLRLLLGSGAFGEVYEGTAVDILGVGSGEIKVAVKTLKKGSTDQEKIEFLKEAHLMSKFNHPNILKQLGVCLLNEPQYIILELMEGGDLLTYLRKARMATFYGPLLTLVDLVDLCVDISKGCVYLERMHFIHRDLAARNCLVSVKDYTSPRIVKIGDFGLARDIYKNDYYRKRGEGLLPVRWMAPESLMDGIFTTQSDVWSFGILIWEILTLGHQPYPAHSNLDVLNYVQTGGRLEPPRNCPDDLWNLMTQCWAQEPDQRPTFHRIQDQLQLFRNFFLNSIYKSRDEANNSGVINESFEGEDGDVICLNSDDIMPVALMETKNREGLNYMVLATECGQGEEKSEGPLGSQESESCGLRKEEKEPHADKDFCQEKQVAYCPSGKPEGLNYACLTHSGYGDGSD
Description: FIG. 3 depicts ROS1 fusions. […] Scale bar, […]. Scale bar magnification, 50 mm. […] Scale bar, […]. Scale bar magnification, 50 mm. […] Scale bar, 10 mm. (c) Illustration of the PWWP2A-ROS1 kinase fusion. ROS1 is located on […], and PWWP2A on chromosome 5q33. Owing to genomic rearrangements, exon 1 of PWWP2A is fused with exon 36-43 of ROS1, which contains the tyrosine kinase domain. […] The indicated protein weight markers in kDa are estimated from molecular weight standards.
FIG. 8 depicts full western blots of FIG. 3d. (a) p-ROS1, (b) t-ROS1, (c) p-AKT, (d) t-AKT, (e) p-ERK, (f) t-ERK, (g) p-S6, (h) t-S6, (i) p-SHP2, (j) t-SHP2, (k) Hsp60. All molecular weight standards are indicated in kDa.

PWWP2A-ROS1 fusion [2] = molecular target: T1, PWWP2A-ROS1 fusion; test: Western blot of phosphorylation in melan-a cells expressing PWWP2A-ROS1 fusion construct; format: cell-based, mouse; conditions: FIG. 3d

| p-AKT (PWWP2A-ROS1 fusion [1]) | p-S6 (PWWP2A-ROS1 fusion [1]) | p-SHP2 (PWWP2A-ROS1 fusion [1]) | phosphorylation of the chimeric PWWP2A-ROS1 fusion protein (PWWP2A-ROS1 fusion [1]) | phosphorylation of ERK (PWWP2A-ROS1 fusion [2]) | phosphorylation of PWWP2A-ROS1, AKT, S6 and SHP2 (PWWP2A-ROS1 fusion [2]) | Compound | maximum tolerated dose (melanoma) [mg] |
| --- | --- | --- | --- | --- | --- | --- | --- |
| – | – | – | – | – | – | CCCS(=O)(=O)Nc1ccc(F)c(C(=O)c2c[nH]c3ncc(-c4ccc(Cl)cc4)cc23)c1F [vemurafenib] | 60 |
| inhibited at least partially | inhibited at least partially | inhibited at least partially | inhibited at least partially | not | at least partially inhibited | C[C@@H](Oc1cc(-c2cnn(C3CCNCC3)c2)cnc1N)c1c(Cl)ccc(F)c1Cl [Crizotinib, crizotinib] | – |
